Earlier results on 1 compound are cited in patent US8906890B2, “Very low-dosed solid oral dosage forms for HRT” (Bayer Intellectual Property GmbH, priority 2010, dated 2014).

Each structure is given as a SMILES string.

For the data set the following is noted: 2 mg E2 orally.

For the compound `C[C@]12CC[C@@H]3c4ccc(O)cc4CC[C@H]3[C@@H]1CC[C@@H]2O` [E2, estradiol], the estrogen-related adverse events entry is recorded as “increased estrogen-related adverse events”.
